Measurements reported in the supplement of paper PMC6470124.

How the values were obtained:
[1] = absolute recovery over mixed-bed multilayer solid-phase extraction; higher = better recovery; conditions: enrichment method: SPE
Outline: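 Elution from a three-layer mixed-bed cartridge used basic followed by acidic ethyl acetate/methanol, after loading either 1000 mL of unfiltered nanopure water or 100–250 mL of wastewater that had been set to pH 6.5 and glass-fibre filtered. Standards went in before or after extraction, or were left out, at 200 ng/L (water) or 1000 ng/L (wastewater), with class exceptions. Internal standards were added afterwards, and measurement was by liquid chromatography with high-resolution tandem mass spectrometry in both ionisation modes. For absolute recovery, background-corrected response ratios of pre-spiked samples were compared with those of post-spiked samples and averaged over at least two replicates.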

[2] = LC retention time (Atlantis T3, 5-95% MeOH gradient, 0.1% formic acid); higher = more retained / less polar
Outline: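 Retention times refer to reference standards measured by liquid chromatography with high-resolution tandem mass spectrometry. Separation was on an Atlantis T3 C18 column (3 × 150 mm, 3 μm) at 0.3 mL/min with a 5 to 95% methanol gradient over 17.5 min, both solvents carrying 0.1% formic acid. Positive and negative electrospray were run separately on a QExactive Plus, and TraceFinder peak integration (5 ppm tolerance, at least three points per peak) was reviewed by hand.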

[3] = absolute recovery over vacuum-assisted evaporative concentration; higher = better recovery; conditions: enrichment method: VEC
Outline: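 Absolute recovery was calculated as (response ratio pre − unspiked)/(post − unspiked) × 100 from averages of ≥ 2 replicates. Influent (6 mL), effluent (15 mL), and surface and nanopure water (60 mL) samples were spiked with standards before concentration, after concentration, or not at all, at 200 ng/L for nanopure and surface water or 1000 ng/L for wastewater, with class- and compound-specific adjustments. Samples were evaporated at 55 °C and 20 mbar to about 0.3 mL, made up to 0.4 mL and centrifuged, then internal standards were added before LC-HRMS/MS analysis.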

absolute recovery ([1]; nanopure water)	LC retention time [2]	absolute recovery ([3]; wastewater effluent)	absolute recovery ([3]; wastewater influent)	absolute recovery ([1]; surface water)	absolute recovery ([1]; wastewater effluent)	absolute recovery ([1]; wastewater influent)	SMILES
–	20.2 min	65.2%	–	–	–	–	CC1=C(C(=O)[O-])N2C(=O)C(NC(=O)C([NH3+])c3ccccc3)C2SC1 (stereo unspecified) [Cefalexin]
–	4.93 min	–	–	–	–	–	CC(=O)NCCCS(=O)(=O)[O-] [Acamprosat]
–	14.4 min	102%	98%	–	–	–	C[NH+]1CCN(C2=Nc3cc(Cl)ccc3Nc3ccccc32)CC1 [Clozapin]
–	10.2 min	–	–	–	–	–	Nc1c(I)c(C(=O)[O-])c(I)c(C(=O)[O-])c1I [5-Amino-2-4-6-triiodoisophthalic-acid]
–	18 min	101%	99.7%	–	–	–	CC(C)CN(CC(O)C(Cc1ccccc1)NC(=O)OC1COC2OCCC12)S(=O)(=O)c1ccc(N)cc1 (stereo unspecified) [Darunavir]
–	8.64 min	102%	98.7%	–	–	–	CNC(=C[N+](=O)[O-])NCCSCc1ccc(C[NH+](C)C)o1 [Ranitidin]
23.9%	4.36 min	–	–	–	–	–	[NH3+]CCc1ccc(O)c(O)c1 [Dopamine]
–	8.59 min	102%	99.8%	–	–	–	CC(C)(C)[NH2+]CC(O)c1ccc(O)c(CO)c1 (stereo unspecified) [Albuterol]
–	17.2 min	–	108%	–	–	–	CCOCN(C(=O)CS(=O)(=O)[O-])c1c(C)cccc1CC [Acetochlor-ESA]
106%	19.7 min	–	–	–	–	–	O=[N+]([O-])c1ccc(C2OC2c2ccc([N+](=O)[O-])cc2S(=O)(=O)[O-])c(S(=O)(=O)[O-])c1 (stereo unspecified) [1-2-Bis-(4-4-dinitro-2-2-disulfonic acid-phenylethylenoxide]
–	4.35 min	–	–	–	–	–	Nc1ccc2c(S(=O)(=O)[O-])cccc2c1S(=O)(=O)[O-] [2-amino-1-5-napthalenedisulfonic-acid]
101%	11.7 min	–	–	93.6%	90.2%	103%	Cc1c(NC=O)c(=O)n(-c2ccccc2)n1C [4-Formylaminoantipyrin (=4-FAA)]
–	14.5 min	105%	106%	–	–	–	O=C(NCC1CCCC[NH2+]1)c1cc(OCC(F)(F)F)ccc1OCC(F)(F)F (stereo unspecified) [Flecainid]
–	2.76 min	–	–	–	–	–	OCC(O)C(O)C(OC1OC(CO)C(O)C(O)C1O)C(O)CO [D-Lactitol]
40.2%	3.27 min	–	–	12.7%	15.9%	26.6%	C[NH2+]CC(O)c1ccc(O)c(O)c1 (stereo unspecified) [Epinephrine]
118%	12.9 min	–	–	101%	102%	91.4%	COC(=O)c1ccccc1S(N)(=O)=O [2-Aminosulfonyl-benzoicacid-methylester]
–	23.3 min	–	–	80%	95.4%	–	CN(CC(=O)[O-])S(=O)(=O)C(F)(F)C(F)(F)C(F)(F)C(F)(F)C(F)(F)C(F)(F)C(F)(F)C(F)(F)F [N-MeFOSAA]
–	22.9 min	–	–	–	–	–	CCC(C)(C)C(=O)OC1CC(C)C=C2C=CC(C)C(CCC3CC(O)CC(=O)O3)C21 (stereo unspecified) [Simvastatin]

absolute recovery ([1]; nanopure water)	LC retention time [2]	absolute recovery ([3]; wastewater effluent)	absolute recovery ([3]; wastewater influent)	absolute recovery ([1]; surface water)	absolute recovery ([1]; wastewater effluent)	absolute recovery ([1]; wastewater influent)	SMILES
–	22.3 min	–	–	50.3%	61.7%	–	C[N-]S(=O)(=O)C(F)(F)C(F)(F)C(F)(F)C(F)(F)C(F)(F)C(F)(F)C(F)(F)C(F)(F)F [N-MeFOSA]
57.8%	15.5 min	–	–	66.6%	48.4%	68.9%	Oc1ccc(C=Cc2cc(O)cc(O)c2)cc1 [Resveratrol]
–	15.1 min	98.2%	97.4%	–	–	–	COc1ccc(CC[NH+](C)CCCC(C#N)(c2ccc(OC)c(OC)c2)C(C)C)cc1OC (stereo unspecified) [Verapamil]
–	13 min	102%	113%	–	–	–	Cc1cc([N-]S(=O)(=O)c2ccc(N)cc2)no1 [Sulfamethoxazol]
96%	11.9 min	–	–	84.5%	87.5%	–	CC(=O)Nc1c(C)n(C)n(-c2ccccc2)c1=O [4-Acetamidoantipyrin (=N-Acetyl-4-Aminoantipyrin, 4-AAA)]
68.5%	18.3 min	–	–	–	71.8%	95.1%	Oc1ccc(C(F)(F)F)cc1 [4-(Trifluoromethyl)phenol]
83.1%	20.9 min	–	–	97.1%	86.1%	37.3%	O=C(c1ccccc1)c1ccc(Cl)cc1 [4-Chlorobenzophenone]
–	20.8 min	105%	72.3%	–	–	–	CC(C)n1c(C=CC(O)CC(O)CC(=O)[O-])c(-c2ccc(F)cc2)c2ccccc21 (stereo unspecified) [Fluvastatin]
–	14.4 min	60.5%	37.5%	–	–	–	COc1cc(NC(C)CCC[NH3+])c2ncccc2c1 (stereo unspecified) [Primaquine]
–	15 min	114%	118%	–	–	–	O=C(CCC[NH+]1CCC(O)(c2ccc(Cl)cc2)CC1)c1ccc(F)cc1 [Haloperidol]
–	3.58 min	85.1%	117%	–	–	–	O=C([O-])C[NH+](CCC[NH+](CC(=O)[O-])CC(=O)[O-])CC(=O)[O-] [1-3-Propylene-diaminotetraacetic-acid]
–	12.4 min	–	–	–	–	–	O=C([O-])C(F)(F)C(F)(F)C(F)(F)C(F)(F)F [PFPA]
83.2%	5.47 min	–	–	82%	78.5%	86.1%	C[NH2+]CC(O)c1cccc(O)c1 (stereo unspecified) [Phenylephrine]
53.8%	12.6 min	–	–	67.1%	–	–	[NH3+]C(CC(=O)N1CCn2c(nnc2C(F)(F)F)C1)Cc1cc(F)c(F)cc1F (stereo unspecified) [Sitagliptin]
93.2%	9.43 min	–	–	–	–	–	CC1=CC(=O)[N-]S(=O)(=O)O1 [Acesulfam]
82%	7.57 min	–	–	69.4%	73.7%	–	Nc1ncnc2c1ncn2C1OC(CO)C(O)C1O (stereo unspecified) [Adenosine]
113%	6.21 min	–	–	–	–	–	O=c1ncnc2[nH][nH]cc1-2 [Allopurinol]

SMILES	absolute recovery ([1]; nanopure water)	LC retention time [2]	absolute recovery ([3]; wastewater effluent)	absolute recovery ([3]; wastewater influent)	absolute recovery ([1]; surface water)	absolute recovery ([1]; wastewater effluent)	absolute recovery ([1]; wastewater influent)
NC(=O)N=C(N)N [Guanylurea]	42.6%	3.13 min	–	–	–	–	–
CCCN(CCC)C(=O)SCc1ccccc1 [Prosulfocarb]	38.9%	11.5 min	–	–	35.1%	43.2%	–
CCC(=O)C(CC(C)[NH+](C)C)(c1ccccc1)c1ccccc1 (stereo unspecified) [Methadon]	–	15.9 min	105%	100%	–	–	–
Nc1nc(N)[nH+]c(N)n1 [Melamin]	21.3%	3.5 min	–	–	–	–	–
C#CCN1C(=O)COc2cc(F)c(N3C(=O)C4=C(CCCC4)C3=O)cc21 [Flumioxazin]	99.7%	18.8 min	–	–	77.4%	91.6%	64%
O=c1ccc(=O)[nH][n-]1 [Maleic-hydrazide]	–	5.88 min	–	–	12.8%	–	–
CC[N-]S(=O)(=O)C(F)(F)C(F)(F)C(F)(F)C(F)(F)C(F)(F)C(F)(F)C(F)(F)C(F)(F)F [N-EtFOSA]	–	22.8 min	–	–	57.6%	66.9%	–
CNC(=O)Oc1cc(C)c(S(C)=O)c(C)c1 (stereo unspecified) [Methiocarb-sulfoxide]	75.7%	13.7 min	–	–	83%	77.8%	58.2%
CCOC(=O)Nc1cccc(OC(=O)Nc2ccccc2)c1 [Desmedipham D]	90.8%	18.6 min	–	–	117%	106%	76.2%
CCOP(=O)(OCC)Oc1cc(C)nc(C(C)C)n1 [Diazoxon]	–	18.8 min	85.6%	95.3%	–	–	–
O=C([O-])C(F)(F)C(F)(F)C(F)(F)C(F)(F)C(F)(F)C(F)(F)C(F)(F)F [PFOA]	–	20 min	87.3%	90%	–	–	–
N#Cc1nn(-c2c(Cl)cc(C(F)(F)F)cc2Cl)c(N)c1C(F)(F)F [Fipronil-desulfinyl]	139%	20.2 min	–	–	–	–	–
